According to the supplement of paper PMC10307832:

How the values were obtained:
Assay in all cases: relative viability (nuclei count vs DMSO), 5 days (fraction); higher = more cells survive
[1] = compound: COc1cc2nc(N3CCCN(C)CC3)nc(NC3CCN(Cc4ccccc4)CC3)c2cc1OC + CS(=O)(=O)CCNCc1ccc(-c2ccc3ncnc(Nc4ccc(OCc5cccc(F)c5)c(Cl)c4)c3c2)o1 [Lapatinib] (partner 2 µM)
Summary of the method: (§1)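 Nuclei were stained with Hoechst during a one-step fixation (final 0.05% Triton X-100, 1% formaldehyde, 1 ug/ml Hoechst) carried out 5 days after dosing, then counted on 4× images. The cells, lung cancer lines in 1536-well plates, had been dosed by pin tool the day after seeding with one drug alone or a fixed anchor-drug dose plus five library-drug doses (not always all listed) in √10 steps. Relative viability is the nuclei count in treated wells divided by that in vehicle wells, and each value is the median of duplicate plates.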

[2] = compound: COc1cc2nc(N3CCCN(C)CC3)nc(NC3CCN(Cc4ccccc4)CC3)c2cc1OC + CS(=O)(=O)N1CCN(Cc2cc3nc(-c4cccc5[nH]ncc45)nc(N4CCOCC4)c3s2)CC1 [Pictilisib] (partner 1 µM)
Summary of the method: as §1

[3] = compound: Cc1cc([C@@H](C)Nc2ccccc2C(=O)O)c2nc(N3CCOCC3)cc(=O)n2c1 [AZD6482] + CS(=O)(=O)CCNCc1ccc(-c2ccc3ncnc(Nc4ccc(OCc5cccc(F)c5)c(Cl)c4)c3c2)o1 [Lapatinib] (partner 2 µM)
Summary of the method: as §1

[4] = compound: Cc1cc([C@@H](C)Nc2ccccc2C(=O)O)c2nc(N3CCOCC3)cc(=O)n2c1 [AZD6482] + Cc1nc(NC(=O)N2CCC[C@H]2C(N)=O)sc1-c1ccnc(C(C)(C)C(F)(F)F)c1 [Alpelisib] (partner 2 µM)
Summary of the method: as §1

Cell Line	relative viability ([1]; first compound 0.2 µM)	relative viability ([1]; first compound 0.6325 µM)	relative viability ([1]; first compound 2 µM)	relative viability ([1]; first compound 6.325 µM)	relative viability ([2]; first compound 0.2 µM)	relative viability ([2]; first compound 0.6325 µM)	relative viability ([2]; first compound 2 µM)	relative viability ([2]; first compound 6.325 µM)	relative viability ([3]; first compound 0.08 µM)	relative viability ([3]; first compound 0.253 µM)	relative viability ([3]; first compound 0.8 µM)	relative viability ([3]; first compound 8 µM)	relative viability ([4]; first compound 0.08 µM)	relative viability ([4]; first compound 0.253 µM)	relative viability ([4]; first compound 0.8 µM)	relative viability ([4]; first compound 8 µM)	relative viability ([3]; first compound 2.53 µM)	relative viability ([4]; first compound 2.53 µM)
NCI-H520	0.892	0.894	0.92	0.3	0.292	0.329	0.332	0.21	0.644	0.397	0.619	0.263	0.381	0.287	0.263	0.353		
NCI-H1755	1.03	1.02	1.06	0.927	0.423	0.425	0.377	0.317	0.955	0.969	1.03	0.749	0.695	0.719	0.547	0.435	0.704	0.336
NCI-H2023	0.87	0.836	0.961	0.115	0.204	0.279	0.211	0.0903	0.729	0.74	0.798	0.422	0.389	0.427	0.449	0.32	0.424	0.267
NCI-H2009	0.871	0.888	1.08	0.901	0.686	0.859	0.962	0.673	1.1	1	1.04	0.815	0.936	1.15	1.04	0.985	0.579	0.484
